Assay results: PubChem BioAssay AID256 (DTP/NCI, 2004)
“And” between values parts separate entries of the source, which are not always exact repeats. Equal values may be shown once. Toxic doses and inconclusive results are not listed. The calls were made as follows: active = survival T/C of 150% or more; inactive = T/C below 125% in these data.

Test system: CD2F1 mice, L1210 leukemia ip, survival T/C
Assay: NCI In Vivo Anticancer Drug Screen. Data for tumor model L1210 Leukemia (intraperitoneal) in CD2F1 (CDF1) mice
Details: endpoint: mean survival time, higher = longer survival
Procedure, shortened: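 Ratio T/C, where T is the treated-group value and C the vehicle-dosed control value, from mice implanted with a transplantable tumor.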

[1] = dose: 100.0 mg/kg/injection, schedule: Q04DX003 (ip), vehicle: saline with Tween-80
[2] = dose: 200.0 mg/kg/injection, schedule: Q04DX003 (ip), vehicle: saline with Tween-80
[3] = dose: 400.0 mg/kg/injection, schedule: Q04DX003 (ip), vehicle: saline with Tween-80
[4] = dose: 100.0 mg/kg/injection, schedule: Q04DX002 (ip), vehicle: saline

Measured: T/C

NNc1n[nH]c(=S)n1N
inactive: dose: 6.25 mg/kg/injection, schedule: Q01DX009 (ip), vehicle: saline with Tween-80 103 % of control | dose: 12.5 mg/kg/injection, schedule: Q01DX009 (ip), vehicle: saline with Tween-80 102 % of control | dose: 25.0 mg/kg/injection, schedule: Q01DX009 (ip), vehicle: saline with Tween-80 104 % of control and 107 % of control

Cc1ccc(NC(=O)c2ccccc2Cl)c(C)c1
inactive: dose: 100.0 mg/kg/injection, schedule: Q01DX009 (ip), vehicle: saline with Tween-80 110 % of control | [1] 104 % of control | dose: 200.0 mg/kg/injection, schedule: Q01DX009 (ip), vehicle: saline with Tween-80 93 % of control | [2] 101 % of control | dose: 400.0 mg/kg/injection, schedule: Q01DX009 (ip), vehicle: saline with Tween-80 98 % of control | [3] 97 % of control

CCOc1ccccc1C1=CCCCCC1
inactive: [1] 98 % of control | [2] 107 % of control | [3] 103 % of control

[Cl][Pt+2][Cl].[NH-]C1CCCC1.[NH-]C1CCCC1
inactive: dose: 5.0 mg/kg/injection, schedule: Q01DX009 (ip), vehicle: Klucel (hydroxypropylcellulose) (HPC) 103 % of control | dose: 10.0 mg/kg/injection, schedule: Q01DX009 (ip), vehicle: Klucel (hydroxypropylcellulose) (HPC) 104 % of control | dose: 20.0 mg/kg/injection, schedule: Q01DX009 (ip), vehicle: Klucel (hydroxypropylcellulose) (HPC) 116 % of control and 104 % of control and 108 % of control | dose: 20.0 mg/kg/injection, schedule: Q04DX003 (ip), vehicle: Klucel (hydroxypropylcellulose) (HPC) 103 % of control | dose: 40.0 mg/kg/injection, schedule: Q01DX001 (ip), vehicle: Klucel (hydroxypropylcellulose) (HPC) 96 % of control | dose: 40.0 mg/kg/injection, schedule: Q01DX009 (ip), vehicle: Klucel (hydroxypropylcellulose) (HPC) 115 % of control and 104 % of control | dose: 40.0 mg/kg/injection, schedule: Q04DX003 (ip), vehicle: Klucel (hydroxypropylcellulose) (HPC) 103 % of control | dose: 80.0 mg/kg/injection, schedule: Q01DX001 (ip), vehicle: Klucel (hydroxypropylcellulose) (HPC) 105 % of control | dose: 80.0 mg/kg/injection, schedule: Q01DX009 (ip), vehicle: Klucel (hydroxypropylcellulose) (HPC) 121 % of control and 124 % of control | dose: 80.0 mg/kg/injection, schedule: Q04DX003 (ip), vehicle: Klucel (hydroxypropylcellulose) (HPC) 111 % of control | dose: 160.0 mg/kg/injection, schedule: Q01DX001 (ip), vehicle: Klucel (hydroxypropylcellulose) (HPC) 102 % of control | dose: 160.0 mg/kg/injection, schedule: Q01DX009 (ip), vehicle: Klucel (hydroxypropylcellulose) (HPC) 115 % of control | dose: 160.0 mg/kg/injection, schedule: Q04DX003 (ip), vehicle: Klucel (hydroxypropylcellulose) (HPC) 111 % of control | dose: 320.0 mg/kg/injection, schedule: Q01DX001 (ip), vehicle: Klucel (hydroxypropylcellulose) (HPC) 106 % of control | dose: 320.0 mg/kg/injection, schedule: Q01DX009 (ip), vehicle: Klucel (hydroxypropylcellulose) (HPC) 115 % of control and 103 % of control | dose: 320.0 mg/kg/injection, schedule: Q04DX003 (ip), vehicle: Klucel (hydroxypropylcellulose) (HPC) 108 % of control | dose: 640.0 mg/kg/injection, schedule: Q01DX001 (ip), vehicle: Klucel (hydroxypropylcellulose) (HPC) 114 % of control

CN(Cc1ccccc1)Cc1ccccc1
inactive: [4] 100 % of control | dose: 200.0 mg/kg/injection, schedule: Q04DX002 (ip), vehicle: saline 94 % of control

O=C(O)CNCC(C(=O)O)C(=O)O
inactive: dose: 25.0 mg/kg/injection, schedule: Q04DX002 (ip), vehicle: saline 96 % of control | dose: 50.0 mg/kg/injection, schedule: Q04DX002 (ip), vehicle: saline 90 % of control | [4] 90 % of control

CC(=O)OC1COC(n2cnc3c(=O)[nH]cnc32)C(OC(C)=O)C1OC(C)=O (stereo unspecified)
inactive: dose: 12.5 mg/kg/injection, schedule: Q01DX001 (ip), vehicle: saline 100 % of control and 109 % of control | dose: 25.0 mg/kg/injection, schedule: Q01DX001 (ip), vehicle: saline 100 % of control and 106 % of control | dose: 50.0 mg/kg/injection, schedule: Q01DX001 (ip), vehicle: saline 118 % of control and 103 % of control | dose: 100.0 mg/kg/injection, schedule: Q01DX001 (ip), vehicle: saline 97 % of control and 106 % of control

CCCCOC(=O)c1ccc(OC(=O)NCCC)cc1
inactive: dose: 50.0 mg/kg/injection, schedule: Q01DX009 (ip), vehicle: Klucel (hydroxypropylcellulose) (HPC) 102 % of control | dose: 100.0 mg/kg/injection, schedule: Q01DX009 (ip), vehicle: Klucel (hydroxypropylcellulose) (HPC) 108 % of control | dose: 200.0 mg/kg/injection, schedule: Q01DX009 (ip), vehicle: Klucel (hydroxypropylcellulose) (HPC) 100 % of control
